The text below walks through data of patent US20230339939A1 (Bayer Aktiengesellschaft, priority 2020, published 2023).

The target in one experiment is CSNK1D (Homo sapiens (Human), UniProt P48730). As to the kind of experiment: CSNK1D Assay (ADP-Glo, 1 μM ATP). As to conditions: median, read-out: CSNK1D IC50 [mol/l] (median). Type of experiment: biochemical. A digest of the protocol:
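ADP-Glo luminescence reports ADP generated by GST-fused full-length human CSNK1D (insect-cell expressed, about 0.5 ng/μL) acting on a biotinylated peptide at 1 μM ATP. Test compounds were pre-bound to enzyme 15 min at 22° C in 50 mM HEPES pH 7.5.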

Experiment [1] deals with wild-type Epidermal Growth Factor Receptor (EGFR) (Homo sapiens (Human), UniProt P00533). As to the kind of experiment: WT-EGFR Kinase Assay (TR-FRET, 2 mM ATP). Type of experiment: biochemical. The following applies: read-out: EGFR Wildtype 2 mM ATP IC50 [mol/l] (median). A digest of the protocol: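 GST-fused human EGFR fragment (R669-A1210) from Sf9 cells, typically 7.6 pg/μL, pre-incubated with compound 15 min at 22° C in Hepes pH 7.0 buffer with MgCl2, DTT and vanadate; biotinylated peptide substrate. After EDTA stop, phosphopeptide detected by TR-FRET (anti-phosphotyrosine Tb-cryptate/streptavidin-XL665), 665/620 nm emission ratio.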
Sequence of wild-type Epidermal Growth Factor Receptor (EGFR) (P00533 669-1210): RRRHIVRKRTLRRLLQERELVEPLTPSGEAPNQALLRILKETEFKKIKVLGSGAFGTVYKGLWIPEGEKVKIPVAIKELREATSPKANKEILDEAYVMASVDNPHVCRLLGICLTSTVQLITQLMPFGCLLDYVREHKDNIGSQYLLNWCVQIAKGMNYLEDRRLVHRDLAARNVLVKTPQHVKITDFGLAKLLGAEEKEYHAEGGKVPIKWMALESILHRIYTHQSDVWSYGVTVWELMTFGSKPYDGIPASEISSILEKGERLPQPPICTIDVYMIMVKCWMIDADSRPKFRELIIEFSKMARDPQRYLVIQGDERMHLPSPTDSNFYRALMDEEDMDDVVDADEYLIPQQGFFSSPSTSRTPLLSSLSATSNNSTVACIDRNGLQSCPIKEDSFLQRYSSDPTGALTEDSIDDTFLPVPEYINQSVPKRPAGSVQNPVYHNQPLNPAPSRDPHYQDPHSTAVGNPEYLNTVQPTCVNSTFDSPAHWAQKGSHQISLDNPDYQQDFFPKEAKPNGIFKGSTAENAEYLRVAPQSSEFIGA

Sequence of CSNK1D (P48730 whole entry, the tested form may be a part): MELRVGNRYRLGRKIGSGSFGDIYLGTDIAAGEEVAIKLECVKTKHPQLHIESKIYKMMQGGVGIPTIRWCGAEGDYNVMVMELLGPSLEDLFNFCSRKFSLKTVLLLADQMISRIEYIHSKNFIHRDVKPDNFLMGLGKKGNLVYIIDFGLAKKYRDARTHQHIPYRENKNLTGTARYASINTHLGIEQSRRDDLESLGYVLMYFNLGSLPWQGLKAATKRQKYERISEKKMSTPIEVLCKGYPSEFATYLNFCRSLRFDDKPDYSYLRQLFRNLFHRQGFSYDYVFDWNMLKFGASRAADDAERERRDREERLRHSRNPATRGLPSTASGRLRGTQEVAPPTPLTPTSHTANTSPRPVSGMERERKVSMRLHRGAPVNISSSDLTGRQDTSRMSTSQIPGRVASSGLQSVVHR

Consider `O=C(Cc1ccccc1)Nc1cc(-c2[nH]c3cccnc3c2-c2ccccn2)ccn1` [Example 46, 2-phenyl-N-(4-(3-(pyridin-2-yl)-1H-pyrrolo[3,2-b]pyridin-2-yl)pyridin-2-yl)acetamide], for which the values for the IC50 (at CSNK1D; in experiment [1]) were 5.77 nM and > 20000 nM, respectively.

Consider `O=C(Cc1ccc(F)cc1)Nc1cc(-c2[nH]c3cccnc3c2-c2ncccn2)ccn1` [Example 51, 2-(4-fluorophenyl)-N-{4-[3-(pyrimidin-2-yl)-1H-pyrrolo[3,2-b]pyridin-2-yl]pyridin-2-yl}acetamide], for which the IC50 at CSNK1D was 20 nM; in experiment [1], > 20000 nM.

For `CC(C(=O)Nc1cc(-c2[nH]c3cc(Cl)cnc3c2-c2ccccn2)ccn1)c1ccc(F)cc1` (stereo not drawn) [Example 52, N-{4-[6-chloro-3-(pyridin-2-yl)-1H-pyrrolo[3,2-b]pyridin-2-yl]pyridin-2-yl}-2-(4-fluorophenyl)propanamide], the IC50 at CSNK1D is 20.5 nM; in experiment [1], > 20000 nM.
